Measurements from US12337010B2, “Compositions and methods of treatment using nicotinamide mononucleotide” (Washington University, priority 2017, dated 2025).

What was measured:
[1] = system: various types of primary cells; settings: NMN co-administered with FK866, compared to NMN in the absence of FK866; cited from earlier work
[2] = target: T1, Slc12a8 (Mus musculus, UniProt Q8VI23); experiment: Radiolabeled NMN uptake in Slc12a8-OE and control NIH3T3 cells; assay type: cell-based; settings: Slc12a8-OE NIH3T3 cells, 4 min, 37° C., control background subtracted
T1 construct: NIH3T3 cells were transfected with 5 μg of pCXN2 carrying the full-length Slc12a8 cDNA (Slc12a8-OE); expressed in transfected cells
T1 sequence (Q8VI23 1-705): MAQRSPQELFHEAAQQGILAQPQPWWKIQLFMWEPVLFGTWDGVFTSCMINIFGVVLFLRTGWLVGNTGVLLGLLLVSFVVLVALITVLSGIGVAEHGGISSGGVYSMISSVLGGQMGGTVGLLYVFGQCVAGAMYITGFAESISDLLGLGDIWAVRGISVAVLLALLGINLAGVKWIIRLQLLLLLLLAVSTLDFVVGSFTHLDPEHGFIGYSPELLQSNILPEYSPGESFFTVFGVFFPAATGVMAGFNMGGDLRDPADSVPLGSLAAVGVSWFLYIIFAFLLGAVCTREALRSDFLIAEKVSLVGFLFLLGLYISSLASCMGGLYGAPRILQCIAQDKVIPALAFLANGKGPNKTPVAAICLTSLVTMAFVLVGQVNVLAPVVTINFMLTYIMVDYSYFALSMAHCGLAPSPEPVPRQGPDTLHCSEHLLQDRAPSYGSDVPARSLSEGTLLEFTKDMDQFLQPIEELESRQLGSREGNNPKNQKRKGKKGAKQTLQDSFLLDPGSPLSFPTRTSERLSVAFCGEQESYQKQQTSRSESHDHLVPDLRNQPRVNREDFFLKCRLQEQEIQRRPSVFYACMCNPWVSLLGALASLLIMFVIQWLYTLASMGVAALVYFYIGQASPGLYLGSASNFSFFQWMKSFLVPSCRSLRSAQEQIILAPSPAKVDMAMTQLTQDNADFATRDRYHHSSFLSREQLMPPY
Description: NMN uptake analyses with radiolabeled NMN. Control and Slc12a8-OE NIH3T3 cells were harvested by centrifugation (400×g, 5 min), washed once in HBSS, and incubated at 37° C. in HBSS [pH 7.5] (5×10^6 cells/ml) containing 100 nM 3H-β-Nicotinamide mononucleotide (9 Ci/mmol; Moravek Biochemicals, CA) and unlabeled NMN to make the final concentration 25 μM. At the designated time points (1, 3, 5 and 10 minutes), aliquots of the cells (100 μl) were collected and placed in 1.5-ml microcentrifuge tubes containing silicone-mineral oil (density, 1.015; Sigma-Aldrich) on the top of 2 M potassium hydroxide solution, followed by centrifugation at 16,000×g for 30s. Cells were separated from the buffer and pelleted through the silicone-mineral oil layer. The radioactivity in these cell pellets was determined by a liquid scintillation counter. For calculating Km and Vmax, the same conditions were used as described above, but with various total concentrations of NMN, ranging from 1 μM to 100 μM. At the 4-min time point, 100 μl of cell suspension was collected and pelleted in the same way described above. The radioactivity in cell pellets was determined by a liquid scintillation counter. The radioactivity measured in control NIH3T3 cells was subtracted to calculate Slc12a8-specific NMN uptake in Slc12a8-OE NIH3T3 cells.
Uptake of NMN was measured as described in methods under “NMN uptake analyses with radiolabeled NMN” using 25 μM ^3H-NMN at 37° C. in control and Slc12a8-OE NIH3T3 cells over 10 min in Hanks' buffer [ph7.5] with Mg2+ and Ca2+ (n=12; analyzed by ANOVA with Sidak's test). […] This Km is qualitatively consistent with a detected range of NMN concentrations in mouse plasma and erythrocytes (Revollo, J. R. et al., Cell Metab., 6, 363-375, 2007; Ramsey, K. M., et al., Science, 324, 651-654, 2009; Yamada, K., et al., Anal. Biochem., 352, 282-285, 2006).

[3] = system: NIH3T3 cells; experiment: Intracellular NAD+ levels in control and Slc12a8-OE NIH3T3 cells; assay type: cell-based, mouse; settings: Slc12a8-OE cells, additional 1-hr incubation with 100 μM NMN after inhibitor cocktail
Source text: NAD+ and NMN measurements by HPLC.

In the case of `NC(=O)c1ccc[n+]([C@@H]2O[C@H](COP(=O)([O-])O)[C@@H](O)[C@H]2O)c1` [NMN, nicotinamide mononucleotide], the “NAD+ increase” value [1] is given as “higher NAD+ increases”, the Km [2] is given as 34.1 ± 8.3 µM and the Vmax [2] is given as 11.5 ± 1.2 pmol/min/mg. For the same molecule, the “intracellular NAD+ levels” value [3] was “restore NAD+ levels to the original levels”.
